Four compounds from patent US10231453B2, “5-substituted imidazole derivatives” (BAYER CROPSCIENCE AKTIENGESELLSCHAFT, priority 2015, dated 2019) can be followed below.

One may read the chromatographic logP as a lipophilicity value derived from retention on a column.

Tested on in one series: not listed separately
The series is described as follows: Measurement of LogP values by HPLC on reversed phase columns (EEC directive 79/831 Annex V.A8). In kind it is physicochemical. The following applies: method [a]: LC-UV, acidic range, 0.1% formic acid in water and acetonitrile as eluent; Table 1. The method, then: Measurement of Log P values was performed as outlined above.
On to `OC(Cc1cccc(F)c1F)(Cn1cncc1Cl)C1(Cl)CC1` (stereo not drawn) [Example I-147], for which the chromatographic logP stood at 2.17.

In turn, `OC(Cc1ccc(F)cc1Cl)(Cn1cncc1Cl)C1(Cl)CC1` (stereo not drawn) [Example I-08] returned a chromatographic logP of 2.47.

In the case of `N#Cc1cncn1CC(O)(Cc1ccnc(Cl)c1F)C1(Cl)CC1` (stereo not drawn) [Example I-152], the chromatographic logP came to 2.25.

For `N#Cc1cncn1CC(O)(Cc1ccc(F)cc1Cl)C1(Cl)CC1` (stereo not drawn) [Example I-154], the chromatographic logP turned out to be 3.

A further series has as its system Botrytis cinerea. In words: In vivo preventive test on Botrytis cinerea (grey mould) on gherkin, Examples B, Q1 and R2. To be noted: Botrytis cinerea, 500 ppm of active ingredient, preventive spray, evaluated 4 to 5 days after inoculation, read-out: efficacy.
On to `OC(Cc1cccc(F)c1F)(Cn1cncc1Cl)C1(Cl)CC1` (stereo not drawn) [Example I-147], for which the pest or weed control at 500 ppm lay within 90 to 100%.

Consider `OC(Cc1ccc(F)cc1Cl)(Cn1cncc1Cl)C1(Cl)CC1` (stereo not drawn) [Example I-08], for which the pest or weed control at 500 ppm is 90 to 100%.

On to `N#Cc1cncn1CC(O)(Cc1ccc(F)cc1Cl)C1(Cl)CC1` (stereo not drawn) [Example I-154], for which the pest or weed control at 500 ppm was 80 to 89%.

The next series deals with Puccinia recondita. In words: In vivo preventive test on Puccinia recondita (brown rust on wheat), Examples C and R3. The following applies: Puccinia recondita, 264 h; 500 ppm of active ingredient; wheat, preventive spray, evaluated 11 days after inoculation; read-out: efficacy.
For `OC(Cc1cccc(F)c1F)(Cn1cncc1Cl)C1(Cl)CC1` (stereo not drawn) [Example I-147], the pest or weed control at 500 ppm was 90 to 100%.

As for `OC(Cc1ccc(F)cc1Cl)(Cn1cncc1Cl)C1(Cl)CC1` (stereo not drawn) [Example I-08], the pest or weed control at 500 ppm was 90 to 100%.

With `N#Cc1cncn1CC(O)(Cc1ccnc(Cl)c1F)C1(Cl)CC1` (stereo not drawn) [Example I-152], the pest or weed control at 500 ppm lay in the range of 90 to 100%.

Regarding `N#Cc1cncn1CC(O)(Cc1ccc(F)cc1Cl)C1(Cl)CC1` (stereo not drawn) [Example I-154], the pest or weed control at 500 ppm fell in the range of 90 to 100%.

A further series deals with Pyrenophora teres. In words: In vivo preventive test on Pyrenophora teres (net blotch on barley), Examples D, Q2 and R4. To be noted: Pyrenophora teres, 336 h, 500 ppm of active ingredient, preventive spray, evaluated 14 days after inoculation, read-out: efficacy.
Consider `OC(Cc1cccc(F)c1F)(Cn1cncc1Cl)C1(Cl)CC1` (stereo not drawn) [Example I-147], for which the pest or weed control at 500 ppm fell in the range of 90 to 100%.

As for `OC(Cc1ccc(F)cc1Cl)(Cn1cncc1Cl)C1(Cl)CC1` (stereo not drawn) [Example I-08], the pest or weed control at 500 ppm fell in the range of 80 to 89%.

As to `N#Cc1cncn1CC(O)(Cc1ccnc(Cl)c1F)C1(Cl)CC1` (stereo not drawn) [Example I-152], the pest or weed control at 500 ppm is 70 to 79%.

The next series deals with Septoria tritici. The series is described as follows: In vivo preventive test on Septoria tritici (leaf spot on wheat), Examples E, Q3 and R5. The following applies: Zymoseptoria tritici, 576 h, 500 ppm of active ingredient; wheat, preventive spray, evaluated 24 days after inoculation; read-out: efficacy.
In the case of `OC(Cc1cccc(F)c1F)(Cn1cncc1Cl)C1(Cl)CC1` (stereo not drawn) [Example I-147], the pest or weed control at 500 ppm was 90 to 100%.

As for `OC(Cc1ccc(F)cc1Cl)(Cn1cncc1Cl)C1(Cl)CC1` (stereo not drawn) [Example I-08], the pest or weed control at 500 ppm fell in the range of 90 to 100%.

Consider `N#Cc1cncn1CC(O)(Cc1ccnc(Cl)c1F)C1(Cl)CC1` (stereo not drawn) [Example I-152], for which the pest or weed control at 500 ppm was in the range of 90 to 100%.

Take `N#Cc1cncn1CC(O)(Cc1ccc(F)cc1Cl)C1(Cl)CC1` (stereo not drawn) [Example I-154]: the pest or weed control at 500 ppm lay in the range of 90 to 100%.

A further series relates to Sphaerotheca fuliginea. In words: In vivo preventive test on Sphaerotheca fuliginea (powdery mildew on cucurbits), Examples F and R6. To be noted: Podosphaera fuliginea, 360 h; 500 ppm of active ingredient; gherkin, preventive spray, evaluated 15 days after inoculation; read-out: efficacy.
With `OC(Cc1cccc(F)c1F)(Cn1cncc1Cl)C1(Cl)CC1` (stereo not drawn) [Example I-147], the pest or weed control at 500 ppm was 90 to 100%.

With `OC(Cc1ccc(F)cc1Cl)(Cn1cncc1Cl)C1(Cl)CC1` (stereo not drawn) [Example I-08], the pest or weed control at 500 ppm was in the range of 90 to 100%.

Turning to `N#Cc1cncn1CC(O)(Cc1ccnc(Cl)c1F)C1(Cl)CC1` (stereo not drawn) [Example I-152], the pest or weed control at 500 ppm is 90 to 100%.

For the compound `N#Cc1cncn1CC(O)(Cc1ccc(F)cc1Cl)C1(Cl)CC1` (stereo not drawn) [Example I-154], the pest or weed control at 500 ppm fell in the range of 90 to 100%.

A further series relates to Uromyces appendiculatus. In words: In vivo preventive test on Uromyces appendiculatus (bean rust), Examples G and R7. To be noted: 264 h, 500 ppm of active ingredient, bean, preventive spray, evaluated 11 days after inoculation, read-out: efficacy.
For the compound `OC(Cc1cccc(F)c1F)(Cn1cncc1Cl)C1(Cl)CC1` (stereo not drawn) [Example I-147], the pest or weed control at 500 ppm was in the range of 90 to 100%.

`OC(Cc1ccc(F)cc1Cl)(Cn1cncc1Cl)C1(Cl)CC1` (stereo not drawn) [Example I-08]: the pest or weed control at 500 ppm fell in the range of 90 to 100%.

Consider `N#Cc1cncn1CC(O)(Cc1ccnc(Cl)c1F)C1(Cl)CC1` (stereo not drawn) [Example I-152], for which the pest or weed control at 500 ppm is 90 to 100%.

Take `N#Cc1cncn1CC(O)(Cc1ccc(F)cc1Cl)C1(Cl)CC1` (stereo not drawn) [Example I-154]: the pest or weed control at 500 ppm lay in the range of 90 to 100%.

In the next series the test system is Alternaria solani. In words: In vivo preventive Alternaria test (tomatoes), Example H. The following applies: 72 h, 100 ppm of active ingredient, preventive spray, evaluated 3 days after inoculation, read-out: efficacy.
On to `OC(Cc1cccc(F)c1F)(Cn1cncc1Cl)C1(Cl)CC1` (stereo not drawn) [Example I-147], for which the pest or weed control at 100 ppm fell in the range of 90 to 100%.

In the case of `OC(Cc1ccc(F)cc1Cl)(Cn1cncc1Cl)C1(Cl)CC1` (stereo not drawn) [Example I-08], the pest or weed control at 100 ppm was in the range of 90 to 100%.

The test system of another series is Phakopsora pachyrhizi. The series is described as follows: In vivo preventive Phakopsora test (soybeans), Example I. To be noted: 168 h, 100 ppm of active ingredient, preventive spray, evaluated 7 days after inoculation, read-out: efficacy.
For the compound `OC(Cc1cccc(F)c1F)(Cn1cncc1Cl)C1(Cl)CC1` (stereo not drawn) [Example I-147], the pest or weed control at 100 ppm was 90 to 100%.

In the case of `OC(Cc1ccc(F)cc1Cl)(Cn1cncc1Cl)C1(Cl)CC1` (stereo not drawn) [Example I-08], the pest or weed control at 100 ppm was in the range of 90 to 100%.

The subject of the next series is Blumeria graminis fsp. hordei. In words: In vivo preventive Blumeria test (barley), Example K. To be noted: 168 h, 500 ppm of active ingredient, preventive spray, evaluated 7 days after inoculation, read-out: efficacy. The text has this: After the spray coating has been dried, the plants are dusted with spores of Blumeria graminis fsp. hordei.
As to `OC(Cc1cccc(F)c1F)(Cn1cncc1Cl)C1(Cl)CC1` (stereo not drawn) [Example I-147], the pest or weed control at 500 ppm is 90 to 100%.

As for `OC(Cc1ccc(F)cc1Cl)(Cn1cncc1Cl)C1(Cl)CC1` (stereo not drawn) [Example I-08], the pest or weed control at 500 ppm was 90 to 100%.

Turning to `N#Cc1cncn1CC(O)(Cc1ccnc(Cl)c1F)C1(Cl)CC1` (stereo not drawn) [Example I-152], the pest or weed control at 500 ppm lay within 90 to 100%.

Take `N#Cc1cncn1CC(O)(Cc1ccc(F)cc1Cl)C1(Cl)CC1` (stereo not drawn) [Example I-154]: the pest or weed control at 500 ppm was in the range of 90 to 100%.

The next series deals with Fusarium graminearum. The series is described as follows: whole plant or invertebrate. In kind it is in vivo. The following applies: in Hordeum vulgare, 120 h, read-out: efficacy.
In the case of `OC(Cc1cccc(F)c1F)(Cn1cncc1Cl)C1(Cl)CC1` (stereo not drawn) [Example I-147], the pest or weed control at 500 ppm was 90 to 100%.

For the compound `OC(Cc1ccc(F)cc1Cl)(Cn1cncc1Cl)C1(Cl)CC1` (stereo not drawn) [Example I-08], the pest or weed control at 500 ppm was in the range of 70 to 79%.

In the case of `N#Cc1cncn1CC(O)(Cc1ccnc(Cl)c1F)C1(Cl)CC1` (stereo not drawn) [Example I-152], the pest or weed control at 500 ppm was 70 to 79%.

On to `N#Cc1cncn1CC(O)(Cc1ccc(F)cc1Cl)C1(Cl)CC1` (stereo not drawn) [Example I-154], for which the pest or weed control at 500 ppm was in the range of 90 to 100%.

For another series, the system named is Leptosphaeria nodorum. The series is described as follows: In vivo preventive Leptosphaeria nodorum test (wheat), Example N. To be noted: Parastagonospora nodorum, 192 h, 500 ppm of active ingredient, preventive spray, evaluated 8 days after inoculation, read-out: efficacy. The text has this: After the spray coating has been dried, the plants are sprayed with a spore suspension of Leptosphaeria nodorum.
Take `OC(Cc1cccc(F)c1F)(Cn1cncc1Cl)C1(Cl)CC1` (stereo not drawn) [Example I-147]: the pest or weed control at 500 ppm fell in the range of 90 to 100%.

With `OC(Cc1ccc(F)cc1Cl)(Cn1cncc1Cl)C1(Cl)CC1` (stereo not drawn) [Example I-08], the pest or weed control at 500 ppm fell in the range of 90 to 100%.

Turning to `N#Cc1cncn1CC(O)(Cc1ccnc(Cl)c1F)C1(Cl)CC1` (stereo not drawn) [Example I-152], the pest or weed control at 500 ppm fell in the range of 70 to 79%.

For `N#Cc1cncn1CC(O)(Cc1ccc(F)cc1Cl)C1(Cl)CC1` (stereo not drawn) [Example I-154], the pest or weed control at 500 ppm is 90 to 100%.

For the next series, the system named is Fusarium nivale (var. majus). The series is described as follows: In vivo preventive Fusarium nivale (var. majus) test (wheat), Example O. To be noted: Microdochium nivale, 120 h, 500 ppm of active ingredient, preventive spray, evaluated 5 days after inoculation, read-out: efficacy. The text has this:
After the spray coating has been dried, the plants are slightly injured by using a sandblast and afterwards they are sprayed with a conidia suspension of Fusarium nivale (var. majus).
`OC(Cc1cccc(F)c1F)(Cn1cncc1Cl)C1(Cl)CC1` (stereo not drawn) [Example I-147]: the pest or weed control at 500 ppm is 90 to 100%.

For `OC(Cc1ccc(F)cc1Cl)(Cn1cncc1Cl)C1(Cl)CC1` (stereo not drawn) [Example I-08], the pest or weed control at 500 ppm lay within 90 to 100%.

In the case of `N#Cc1cncn1CC(O)(Cc1ccnc(Cl)c1F)C1(Cl)CC1` (stereo not drawn) [Example I-152], the pest or weed control at 500 ppm was 90 to 100%.

Regarding `N#Cc1cncn1CC(O)(Cc1ccc(F)cc1Cl)C1(Cl)CC1` (stereo not drawn) [Example I-154], the pest or weed control at 500 ppm lay in the range of 90 to 100%.

The next series concerns Pyricularia oryzae. The series is described as follows: whole plant or invertebrate. In kind it is in vivo. The following applies: 192 h, read-out: efficacy.
`OC(Cc1cccc(F)c1F)(Cn1cncc1Cl)C1(Cl)CC1` (stereo not drawn) [Example I-147]: the pest or weed control at 500 ppm fell in the range of 80 to 89%.

As for `OC(Cc1ccc(F)cc1Cl)(Cn1cncc1Cl)C1(Cl)CC1` (stereo not drawn) [Example I-08], the pest or weed control at 500 ppm lay in the range of 70 to 79%.

In the case of `N#Cc1cncn1CC(O)(Cc1ccc(F)cc1Cl)C1(Cl)CC1` (stereo not drawn) [Example I-154], the pest or weed control at 500 ppm was 70 to 79%.

A further series relates to Venturia inaequalis. The series is described as follows: In vivo preventive Venturia test (apples), Example J. To be noted: 240 h, read-out: efficacy.
Method: After the spray coating has dried on, the plants are inoculated with an aqueous conidia suspension of the causal agent of apple scab (Venturia inaequalis) and then remain for 1 day in an incubation cabinet at approximately 20° C. and a relative atmospheric humidity of 100%.
The plants are then placed in a greenhouse at approximately 21° C. and a relative atmospheric humidity of approximately 90%.
The test is evaluated 10 days after the inoculation.
On to `OC(Cc1cccc(F)c1F)(Cn1cncc1Cl)C1(Cl)CC1` (stereo not drawn) [Example I-147], for which the pest or weed control at 100 ppm is 90 to 100%.

For the compound `OC(Cc1ccc(F)cc1Cl)(Cn1cncc1Cl)C1(Cl)CC1` (stereo not drawn) [Example I-08], the pest or weed control at 100 ppm fell in the range of 90 to 100%.
